# From ChEMBL document CHEMBL1124371, “A novel solution-stable, water-soluble prodrug type for drugs containing a hydroxyl or an NH-acidic group” (J Med Chem, 1989)
# Species: Homo sapiens
# Experiment: Ester prodrugs: T1/2 in human plasma
# Assay type: ADME
# Details: not given
row,Compound,T1/2
1,CCN(CC)Cc1cccc(C(=O)OCn2c(=O)oc3ccc(Cl)cc32)c1,28 min

# Same assay, conditions: human, in vitro
row,T1/2,Compound
1,18 min,C[C@H]1CC2C(C(O)CC3(C)C2CC[C@]3(O)C(=O)COC(=O)c2cccc(CN(C)CCN(C)C)c2)C2(C)C=CC(=O)C=C12 (stereo not given in full)
2,8 min,CCN(CC)CCN(CC)Cc1cccc(C(=O)OCC(=O)[C@@]2(O)CCC3C4CCC5=CC(=O)CCC5(C)C4C(O)CC32C)c1 (stereo not given in full)
3,34 min,CCN(CC)Cc1cccc(C(=O)OCC(=O)[C@@]2(O)CCC3C4CCC5=CC(=O)CCC5(C)C4C(O)CC32C)c1 (stereo not given in full)
4,15 min,CN1CCN(Cc2cccc(C(=O)OCC(=O)[C@@]3(O)CCC4C5CCC6=CC(=O)CCC6(C)C5C(O)CC43C)c2)CC1 (stereo not given in full)
5,107 min,CCN(CC)Cc1ccc(C(=O)OCC(=O)[C@@]2(O)CCC3C4CCC5=CC(=O)CCC5(C)C4C(O)CC32C)cc1 (stereo not given in full)
6,5 min,CN1CCN(Cc2cccc(C(=O)OCC(NC(=O)C(Cl)Cl)C(O)c3ccc([N+](=O)[O-])cc3)c2)CC1 (stereo not given)
7,20 min,CCN(CC)Cc1cccc(C(=O)OCN2C(=O)NC(c3ccccc3)(c3ccccc3)C2=O)c1
8,0.4 min,CCN(CC)Cc1cccc(C(=O)OCn2cnc3c2c(=O)n(C)c(=O)n3C)c1
9,15 min,CCN(CC)CCN(CC)Cc1cccc(C(=O)Oc2ccc(NC(C)=O)cc2)c1
10,8 min,CCN(CC)Cc1cccc(C(=O)OCC(NC(=O)C(Cl)Cl)C(O)c2ccc([N+](=O)[O-])cc2)c1 (stereo not given)
11,29 min,C[C@H]1CC2C(C(O)CC3(C)C2CC[C@]3(O)C(=O)COC(=O)c2cccc(CN3CCN(C)CC3)c2)C2(C)C=CC(=O)C=C12 (stereo not given in full)
12,25 min,CNCc1cccc(C(=O)OCC(=O)[C@@]2(O)CCC3C4CCC5=CC(=O)CCC5(C)C4C(O)CC32C)c1 (stereo not given in full)
13,2.8 min,Cn1c(=O)c2c(ncn2COC(=O)c2cccc(CN3CCOCC3)c2)n(C)c1=O
14,18 min,CN1CCN(Cc2cccc(C(=O)OCC(=O)[C@@]3(O)CCC4C5CCC6=CC(=O)C=CC6(C)C5C(O)CC43C)c2)CC1 (stereo not given in full)
15,147 min,CN1CCN(Cc2ccc(C(=O)OCC(=O)[C@@]3(O)CCC4C5CCC6=CC(=O)CCC6(C)C5C(O)CC43C)cc2)CC1 (stereo not given in full)
16,62 min,CC12CCC(=O)C=C1CCC1C2C(O)CC2(C)C1CC[C@]2(O)C(=O)COC(=O)c1cccc(CN2CCOCC2)c1 (stereo not given in full)
17,92 min,CC12CCC(=O)C=C1CCC1C2C(O)CC2(C)C1CC[C@]2(O)C(=O)COC(=O)c1ccc(CN2CCOCC2)cc1 (stereo not given in full)
18,38 min,CCCNCc1cccc(C(=O)OCC(=O)[C@@]2(O)CCC3C4CCC5=CC(=O)CCC5(C)C4C(O)CC32C)c1 (stereo not given in full)
19,0.4 min,CN1CCN(Cc2cccc(C(=O)OCn3cnc4c3c(=O)n(C)c(=O)n4C)c2)CC1
20,0.9 min,Cn1c(=O)c2c(ncn2COC(=O)c2cccc(Cn3ccnc3)c2)n(C)c1=O
21,0.9 min,CCN(CC)CCN(CC)Cc1cccc(C(=O)OCC(NC(=O)C(Cl)Cl)C(O)c2ccc([N+](=O)[O-])cc2)c1 (stereo not given)

# Continued, compound first:
row,Compound,T1/2
1,Cc1ncc([N+](=O)[O-])n1CCOC(=O)c1cccc(CN2CCN(C)CC2)c1,0.6 min
2,Cc1ncc([N+](=O)[O-])n1CCOC(=O)c1ccc(CN(C)C)cc1,4.7 min
3,CC(=O)Nc1ccc(OC(=O)c2cccc(CN3CCOCC3)c2)cc1,56 min
4,Cc1ncc([N+](=O)[O-])n1CCOC(=O)c1cccc(CN2CCOCC2)c1,5 min
5,O=C(OCn1ncc2c(=O)[nH]cnc21)c1cccc(CN2CCOCC2)c1,8.5 min
6,Cc1ncc([N+](=O)[O-])n1CCOC(=O)c1ccc(CN2CCOCC2)cc1,0.4 min
7,Nc1nc(O)c2ncn(COCCOC(=O)c3ccc(CN4CCOCC4)cc3)c2n1,3.7 min
8,CN1CCN(Cc2cccc(C(=O)OCn3ncc4c(=O)[nH]cnc43)c2)CC1,0.5 min
9,CN1CCN(Cc2ccc(C(=O)OCn3ncc4c(=O)[nH]cnc43)cc2)CC1,11 min
10,CC(=O)Nc1ccc(OC(=O)c2ccc(CN(C)C)cc2)cc1,87 min
11,CN(C)Cc1ccc(C(=O)OCn2ncc3c(=O)[nH]cnc32)cc1,9.4 min
12,O=C(OCn1ncc2c(=O)[nH]cnc21)c1cccc(Cn2ccnc2)c1,3.6 min
13,CC(=O)Nc1ccc(OC(=O)c2cccc(CN3CCN(C)CC3)c2)cc1,27 min
14,Cc1ncc([N+](=O)[O-])n1CCOC(=O)c1ccc(CN2CCN(C)CC2)cc1,2.4 min
15,CN1CCN(Cc2cccc(C(=O)OCN3C(=O)NC(c4ccccc4)(c4ccccc4)C3=O)c2)CC1,7 min
16,O=C(OCC(NC(=O)C(Cl)Cl)C(O)c1ccc([N+](=O)[O-])cc1)c1cccc(CN2CCOCC2)c1 (stereo not given),55 min
17,O=C(OCn1ncc2c(=O)[nH]cnc21)c1ccc(CN2CCOCC2)cc1,1.9 min
18,CC(=O)Nc1ccc(OC(=O)c2ccc(CN3CCN(C)CC3)cc2)cc1,487 min
